Source: ChEMBL document CHEMBL1135516, “Three-dimensional quantitative structure-activity relationship analysis of ligand binding to human sequence antidigoxin monoclonal antibodies using comparative molecular field analysis” (J Med Chem, 2002)
pKd, pKi: −log10 of the molar value.

Experiments:
[1] = test system: Monoclonal antibody (mAb); assay: Binding affinity against murine monoclonal antibody (mAb)-40-50
[2] = test system: Monoclonal antibody (mAb); assay: Binding affinity against human monoclonal antibody (mAb)-11E6
[3] = test system: Monoclonal antibody (mAb); assay: Binding affinity against human monoclonal antibody (mAb)-1B3
[4] = test system: Monoclonal antibody (mAb); assay: Binding affinity against human monoclonal antibody (mAb)-5C2
[5] = test system: Monoclonal antibody (mAb); assay: Binding affinity against human monoclonal antibody (mAb)-7F2
[6] = molecular target: Monoclonal antibody (mAb); assay: Binding affinity against Monoclonal antibody mAB-1B3 using [3H]digitoxin as radioligand
[7] = molecular target: Monoclonal antibody (mAb); assay: Binding affinity against Monoclonal antibody mAB-1B3 using [3H]digoxin as radioligand
[8] = molecular target: Monoclonal antibody (mAb); assay: Kinetic parameter against Monoclonal antibody mAB-1B3

Structure (SMILES) | Relative Ki [1] | IC50 ratio [2] | IC50 ratio [3] | IC50 ratio [4] | IC50 ratio [5] | pKi [6] | pKi [7] | pKd [8]
CO[C@H]1C[C@H](O[C@H]2CC[C@@]3(C)[C@H](CC[C@@H]4[C@@H]3CC[C@]3(C)[C@@H](C5=CC(=O)OC5)[C@@H](OC(C)=O)C[C@]43O)C2)O[C@@H](C)[C@@H]1O | 200 | 3100 | 180 | No inhibition | 3200 | – | – | –
C[C@]12CC[C@H](O)C[C@H]1CC[C@@H]1[C@@H]2C[C@@H](O)[C@]2(C)[C@@H](C3=CC(=O)OC3)CC[C@]12O [DIGOXIGENIN] | 2 | 6.2 | 2700 | 2.9 | 4.6 | 5.77 | 5.51 | –
C[C@]12C[C@@H](O)[C@H]3[C@@H](CC[C@]4(O)C[C@@H](O)C[C@@H](O)[C@]34CO)[C@@]1(O)CC[C@@H]2C1=CC(=O)OC1 | 9 | 6600 | 52000 | No inhibition | 13000 | – | – | –
CC(=O)O[C@H]1C[C@]2(O)[C@@H]3CC[C@@H]4C[C@@H](O[C@@H]5C[C@H](O)[C@H](O[C@H]6C[C@H](O)[C@H](O[C@H]7C[C@H](O)[C@H](O)[C@@H](C)O7)[C@@H](C)O6)[C@@H](C)O5)CC[C@]4(C)[C@H]3CC[C@]2(C)[C@H]1C1=CC(=O)OC1 | 58 | 400 | 49 | 290 | 330 | – | – | –
C[C@H]1O[C@@H](O[C@H]2[C@@H](O)C[C@H](O[C@H]3[C@@H](O)C[C@H](O[C@H]4CC[C@@]5(C)[C@H](CC[C@@H]6[C@@H]5CC[C@]5(C)[C@@H](C7=CC(=O)OC7)CC[C@]65O)C4)O[C@@H]3C)O[C@@H]2C)C[C@H](O)[C@@H]1O [DIGITOXIN] | 1 | 1.7 | 0.3 | 10 | 8 | 9.70 | 10.00 | 9.22
CC(=O)O[C@H]1CC[C@]2(C=O)[C@H]3CC[C@]4(C)[C@@H](C5=CC(=O)OC5)CC[C@]4(O)[C@@H]3CC[C@]2(O)C1 | 10 | 18 | 600 | 44 | 17 | – | – | –
C[C@@H]1O[C@H](O[C@H]2CC[C@@]3(C)[C@H](CC[C@@H]4[C@@H]3CC[C@]3(C)[C@@H](C5=CC(=O)OC5)CC[C@]43O)C2)[C@@H](O)[C@@H](O)[C@@H]1O | 0.6 | 29 | 40 | 21 | 22 | – | – | –
C[C@]12CC[C@H](O)C[C@H]1CC[C@@H]1[C@@H]2CC[C@]2(C)[C@@H](C3=CC(=O)OC3)[C@@H](O)C[C@]12O | 93 | 2100 | 4700 | 2700 | 2000 | – | – | –
C[C@@H]1O[C@@H](O[C@H]2C[C@@H](O)[C@]3(CO)[C@H]4[C@H](O)C[C@]5(C)[C@@H](C6=CC(=O)OC6)CC[C@]5(O)[C@@H]4CC[C@]3(O)C2)[C@H](O)[C@H](O)[C@H]1O | 7 | 38000 | 4100 | No inhibition | 39000 | – | – | –
CO[C@H]1[C@H](O)[C@H](O[C@H]2CC[C@@]3(C)[C@H](CC[C@@H]4[C@@H]3CC[C@]3(C)[C@@H](C5=CC(=O)OC5)CC[C@]43O)C2)O[C@@H](C)[C@@H]1O | 1 | 17 | 69 | 21 | 9.5 | – | – | –
C[C@]12CC[C@H](O)C[C@H]1CC[C@@H]1[C@@H]2CC[C@]2(C)[C@@H](C3=CC(=O)OC3)CC[C@]12O [DIGITOXIGENIN] | 2 | 14 | 1800 | 14 | 16 | 6.06 | 6.00 | –
C[C@]12CC[C@H]3[C@@H](CC[C@]4(O)C[C@@H](O)CC[C@]34C=O)[C@@]1(O)CC[C@@H]2C1=CC(=O)OC1 | 4 | 66 | 3000 | 470 | 84 | – | – | –
C[C@H]1O[C@@H](O[C@H]2[C@@H](O)C[C@H](O[C@H]3[C@@H](O)C[C@H](O[C@H]4CC[C@@]5(C)[C@H](CC[C@@H]6[C@@H]5C[C@@H](O)[C@]5(C)[C@@H](C7=CC(=O)OC7)CC[C@]65O)C4)O[C@@H]3C)O[C@@H]2C)C[C@H](O)[C@@H]1O [DIGOXIN] | 1 | 1 | 1 | 1 | 1 | 9.10 | 8.92 | 8.51
CC(=O)O[C@H]1CC[C@@]2(C)[C@H](CC[C@@H]3[C@@H]2C[C@@H](O)[C@]2(C)[C@@H](C4=CC(=O)OC4)CC[C@]32O)C1 | 0.7 | 96 | 70 | 140 | 110 | – | – | –
CC(=O)[C@H]1CC[C@H]2[C@@H]3CCC4=CC(=O)CC[C@]4(C)[C@H]3CC[C@]12C [PROGESTERONE] | – | 100 | 36000 | 55 | 69 | – | 4.44 | –
C[C@H]1O[C@@H](O[C@H]2[C@@H](O)C[C@H](O[C@H]3[C@@H](O)C[C@H](O[C@H]4CC[C@@]5(C)[C@H](CC[C@@H]6[C@@H]5CC[C@]5(C)[C@@H](C7=CC(=O)OC7)[C@@H](O)C[C@]65O)C4)O[C@@H]3C)O[C@@H]2C)C[C@H](O)[C@@H]1O | 16 | 73 | 11 | 130 | 81 | – | – | –
C[C@H]1O[C@@H](O[C@H]2CC[C@@]3(C)[C@H](CC[C@@H]4[C@@H]3C[C@@H](O)[C@]3(C)[C@@H](C5=CC(=O)OC5)CC[C@]43O)C2)C[C@H](O)[C@@H]1O | 0.6 | 0.9 | 5.9 | 1.3 | 1 | – | – | –
